From patent US20190290729A1, “PHARMACEUTICAL ASSOCIATION OF GROWTH FACTOR RECEPTOR AGONIST AND ADHESION PROTEIN INHIBITOR FOR CONVERTING A NEOPLASTIC CELL INTO A NON-NEOPLASTIC CELL AND USES THEREOF” (HISTIDE AG, priority 2015, published 2019)
Where no end group is shown, it is not given here.

How the values were obtained:
[1] = test system: MG63 cells; assay: p53 protein expression level, immunofluorescence staining quantified with ImageJ, osteosarcoma cells; assay type: cell-based, human; set-up: P53: unit not given here; conditions: for p53 (%): Table 4, cyclic GFR-binding peptide in association with SiRNA Integrin alpha 3 and SiRNA Integrin beta 1, 400 ng/mL, 24 hours; for P53: Table 9, in association with SiRNA Integrin alpha 3+SiRNA Integrin beta 1 (SEQ ID NO: 141 to 163)
Experimental: (§1) The following starting materials and reagents were used: • Type-I collagen sponge was obtained from Sigma®. • PBS 1× was obtained from Gibco®. • MilliQ water: is water characterised in terms of resistivity (typically 18.2 MΩ·cm at 25° C.). • Low glucose Dulbecco's Modified Eagle Medium (DMEM) was obtained from Invitrogen® • Minimum Essential Medium Eagle without ascorbic acid (αMEM) was obtained from Invitrogen®. • All of the cell culture experiments were carried out without any serum in the medium for the first 8 hours of culture. • Osteosarcoma cells: MG63 cells were obtained from ATCC®. These cells were cultured in DMEM (Eagle's Minimum Essential Medium) medium supplemented with 10% fetal calf serum (FCS) and 1% penicillin/streptomycin. All cells were used at a low passage number (passage 10), were subconfluently cultured and were seeded at 10^4 cells/cm^2 for the purpose of the experiments. • Chondrosarcoma cells Hs819.T cells were obtained from ATCC®. These cells were cultured in DMEM (Eagle's Minimum Essential Medium) medium supplemented with 10% fetal calf serum (FCS) and 1% penicillin/streptomycin. All cells were used at a low passage number (passage 10), were subconfluently cultured and were seeded at 10^4 cells/cm^2 for the purpose of the experiments. • Rhabdomyosarcoma cells: A-673 cells were obtained from ATCC®. These cells were cultured in DMEM (Eagle's Minimum Essential Medium) medium supplemented with 10% fetal calf serum (FCS) and 1% penicillin/streptomycin. All cells were used at a low passage number (passage 10), were subconfluently cultured and were seeded at 10^4 cells/cm^2 for the purpose of the experiments. • Adenocarcinoma cells: HCC4006 cells were obtained from ATCC®. These cells were cultured in RPMI-1640 medium (obtained from ATCC®) supplemented with 10% fetal calf serum (FCS) and 1% penicillin/streptomycin. All cells were used at a low passage number (passage 10), were subconfluently cultured and were seeded at 10^4 cells/cm^2 for the purpose of the experiments. • CMFDA is a Cell Tracker Green obtained from Invitrogen®. • DAPI was obtained from Sigma®. • Fetal bovine serum (FBS) was obtained from Gibco®. • Penicillin/streptomycin was obtained from Invitrogen®. • The AlamarBlue® assay was obtained from Molecular Probes®. • Anti phospho-p53 antibody was obtained from Santa Cruz Biotechnology®, • Anti pRB antibody was obtained from Santa Cruz Biotechnology®, • Monoclonal anti-integrin (extracellular domain) αv, α5, α3, α4, β1, β3, β5 and β9 antibodies were obtained from Santa Cruz Biotechnology®, • Cell cytoskeletal filamentous actin (F-actin) was visualized by Alexa Fluor® 488 phalloidin Sigma® labeling. • Monoclonal anti-vinculin antibody (clone hVIN-1, produced in mouse) was obtained from Sigma®.
(§2) • All of the peptides were synthetized using conventional solution and/or solid phase peptide synthesis methods. • All of the experiments were performed with a concentration of 400 ng/mL of GFR-binding compound(s) as defined herein. • All cell culture experiments were performed with cultures on plastic coated with type-I collagen in order to mimic the physiological conditions of the human body. • The compositions of pharmaceutical compositions used in the examples below are summarized in the following table:
(§3) The cells were first fixed for 20 min with 4% paraformaldehyde/PBS at 4° C. After fixation, the cells were permeabilized in PBS containing 1% Triton X-100 for 15 min. Protein immunofluorescent visualization was performed by first treating the cells with 1% (v/v) specific monoclonal antibodies for 1 hour at 37° C. Then the samples were incubated with Alexa Fluor® 568 or 647 (F(ab′)2 fragment of IgG(H+L)) during 30 min at room temperature. The cell nuclei were counterstained in 20 ng/mL DAPI for 10 min at room temperature.
(§4) For this type of quantification the freeware image analysis ImageJ® software was used. […]

[2] = test system: MG63 cells; assay: pRB phosphorylation level, immunofluorescence staining quantified with ImageJ, osteosarcoma cells; assay type: cell-based, human; conditions: for pRB: Table 9, in association with SiRNA Integrin alpha 3+SiRNA Integrin beta 1 (SEQ ID NO: 141 to 163)
Experimental: as §1, §2, §3, §4

[3] = test system: human rhabdosarcoma cells; assay: pRB quantification, same procedure, rhabdosarcoma cells; assay type: cell-based; conditions: for pRB: Table 9, in association with SiRNA Integrin alpha 3+RGDSPC+SiRNA Integrin beta 1+SiRNA Syndecan 1 (SEQ ID NO: 31, 32, 164 to 187)
Experimental: as §1, §2, §3, §4

[4] = test system: human rhabdosarcoma cells; assay: p53 quantification, same procedure, rhabdosarcoma cells; assay type: cell-based; set-up: P53: unit not given here; conditions: for P53: Table 9, in association with SiRNA Integrin alpha 3+RGDSPC+SiRNA Integrin beta 1+SiRNA Syndecan 1 (SEQ ID NO: 31, 32, 164 to 187)
Experimental: as §1, §2, §3, §4

[5] = Table 4, MG63 cells, cyclic GFR-binding peptide in association with SiRNA Integrin alpha 3 and SiRNA Integrin beta 1, 400 ng/mL, 24 hours
[6] = Table 7, human osteosarcoma cells, MG63, GFR-binding compound within pharmaceutical association
[7] = Table 8, in association with SiRNA Integrin alpha 3, v, 4 and SiRNA Integrin beta 1
[8] = Table 5, cyclic GFR-binding peptide in association with SiRNA Integrin alpha 3+RGDSPC+SiRNA Integrin beta 1+SiRNA Syndecan 1, 400 ng/mL

APTGGSATSMLYYDKGVVTYLRKHRGGVVKDKGVVTY (also: cyclic, ring not given here) [SEQ ID NO: 38204]
p53 (%) [1]: 37%
pRB (%) [2, 5]: 11%

APTLLNAISMLYFNDKQQIILKKYRLLVVRNDKQQII (also: cyclic, ring not given here) [SEQ ID NO: 38203]
p53 (%) [1]: 44%
pRB (%) [2, 5]: 12%

APVAAKPLSMLYVDKGVVTYDHHKDAAVEEDEYDKVV (also: cyclic, ring not given here) [SEQ ID NO: 38209]
p53 (%) [1]: 38%
pRB (%) [2, 5]: 11%

ASASPSSVPQDLEPLTILYYVGRTPKVEQLSNMV (Non-cyclic GFR-binding peptide) [SEQ ID NO: 55]
pRB (%) [2, 6]: 17%

CAPTKLSAISMLYLDSSNNVILKNYQ (Non-cyclic GFR-binding peptide) [SEQ ID NO: 154]
P53 [1]: 40
pRB ([2]; MG63 cells): 14

CAPTQLSPISVLYKDDSSNVILKYHYTLEDH (Non-cyclic GFR-binding peptide) [SEQ ID NO: 148]
P53 [1]: 42
pRB ([2]; MG63 cells): 9

CASAAPSSVPQKLNAISMLYFVGRKPKVLKKYRMIVRS (Non-cyclic GFR-binding peptide) [SEQ ID NO: 157]
P53 [1]: 34
pRB ([2]; MG63 cells): 11

CASASPSSVSQDLNAISVLYFIGKTPKILKKYRMIVKSSKSS (Non-cyclic GFR-binding peptide) [SEQ ID NO: 145]
P53 [1]: 38
pRB ([2]; MG63 cells): 6

CASASPSSVSQDLSAISTLYLIGKTPKILKNYQMIVKSSKSS (Non-cyclic GFR-binding peptide) [SEQ ID NO: 143]
P53 [1]: 37
pRB ([2]; MG63 cells): 14

CASSAVSQELSAISMLYLGGGLKNYQDM (Non-cyclic GFR-binding peptide) [SEQ ID NO: 155]
P53 [1]: 47
pRB ([2]; MG63 cells): 6

CAVPKASSAPTKLSATSVLYYDSSNNVVLRKHRNMVVK (Non-cyclic GFR-binding peptide) [SEQ ID NO: 146]
P53 [1]: 38
pRB ([2]; MG63 cells): 11

CGGGSSVPTELSAISTLYLDDYDKVILKKYRNM (Non-cyclic GFR-binding peptide) [SEQ ID NO: 161]
P53 [1]: 52
pRB ([2]; MG63 cells): 10

CKASSVPTELSPISTLYKDENEKVVLKYHYDMVVEGSGSR (Non-cyclic GFR-binding peptide) [SEQ ID NO: 156]
P53 [1]: 45
pRB ([2]; MG63 cells): 8

CKIPKASSVPTELNAISVLYFDENEKVILKKYRDMVVEGSG (Non-cyclic GFR-binding peptide) [SEQ ID NO: 144]
P53 [1]: 40
pRB ([2]; MG63 cells): 7

CKVGKASSVPTKLNAISTLYLDDSSNVILKNYQ (Non-cyclic GFR-binding peptide) [SEQ ID NO: 160]
P53 [1]: 38
pRB ([2]; MG63 cells): 8

CKVGKASSVPTKLNAISTLYLDENEKVVLKKYREGMS (Non-cyclic GFR-binding peptide) [SEQ ID NO: 158]
P53 [1]: 39
pRB ([2]; MG63 cells): 9

CKVGKASSVPTKLSAISTLYLDDMGVPTLKNYQNMVVRASGSH (Non-cyclic GFR-binding peptide) [SEQ ID NO: 142]
P53 [1]: 36
pRB ([2]; MG63 cells): 8

CKVPKASSVPTELSAISTLYLAAAALKNYQEM (Non-cyclic GFR-binding peptide) [SEQ ID NO: 152]
P53 [1]: 37
pRB ([2]; MG63 cells): 8

CKVPKPSSAPTQLSAISTLYLDEYDKVVLKNYQNMVVRA (Non-cyclic GFR-binding peptide) [SEQ ID NO: 141]
P53 [1]: 41
pRB ([2]; MG63 cells): 11

CPKPSSAPTQLNAISMLYFGGGGGGGLKKYRNMVVRA (Non-cyclic GFR-binding peptide) [SEQ ID NO: 151]
P53 [1]: 39
pRB ([2]; MG63 cells): 9

NDEGLECVPTEERPVQVRKIRIKPHQGQKKATVFLQHNK [SEQ ID NO: 54] (Non-cyclic GFR-binding peptide)
pRB (%) [2, 6]: 12%

NDEGLECVPTEERPVQVRKIRIKPHQGQKKATVFLQHNK [SEQ ID NO: 59] (Non-cyclic GFR-binding peptide)
pRB (%) [2, 6]: 22%

RNVQCRPTQLEPLPIVYYEIVRKKPEQLSNTLEDHLA [SEQ ID NO: 56] (Non-cyclic GFR-binding peptide)
pRB (%) [2, 6]: 21%

RNVQCRPTQLEPLPIVYYEIVRKKPEQLSNTLEDHLA [SEQ ID NO: 61] (Non-cyclic GFR-binding peptide)
pRB (%) [2, 6]: 18%

VPQQQEPLTTLYYDEYDKVVEQLSNQQVKS (Non-cyclic GFR-binding peptide) [SEQ ID NO: 134]
pRB (%) [3, 7]: 8%
P53 (%) [4, 7]: 50%

VPTAAEPISMLYLDEYDKVVKFKYEAAAVS (Non-cyclic GFR-binding peptide) [SEQ ID NO: 129]
pRB (%) [3, 7]: 20%
P53 (%) [4, 7]: 42%

VPTAAEPLTMLYYEIVRKKPIFEQLSNMVEHSDDMGVPT (also: cyclic peptide) [SEQ ID NO: 38223]
pRB (%) [3, 8]: 17%
P53 (%) [4, 8]: 44%

VPTAASAISILYLDAANNVVLKNYQAAVVE (Non-cyclic GFR-binding peptide) [SEQ ID NO: 123]
pRB (%) [3, 7]: 11%
P53 (%) [4, 7]: 32%

VPTDDSATSTLYYDKGVVTYLRKHRDDEHS (Non-cyclic GFR-binding peptide) [SEQ ID NO: 137]
pRB (%) [3, 7]: 12%
P53 (%) [4, 7]: 42%

VPTGGEPLTTLYYNDKQQIIEQLSNGGEHS (Non-cyclic GFR-binding peptide) [SEQ ID NO: 138]
pRB (%) [3, 7]: 20%
P53 (%) [4, 7]: 45%

VPTMMSNITTQIMRIKPHQGQHIGEMSMMQHN (Non-cyclic GFR-binding peptide) [SEQ ID NO: 135]
pRB (%) [3, 7]: 16%
P53 (%) [4, 7]: 48%

VPTSSSPISTLYIDKGVVTYLKYHYSSVAE (Non-cyclic GFR-binding peptide) [SEQ ID NO: 128]
pRB (%) [3, 7]: 21%
P53 (%) [4, 7]: 36%

VPTVVSAISTLYLRIKPHQGQHLKNYQVVVVE (Non-cyclic GFR-binding peptide) [SEQ ID NO: 125]
pRB (%) [3, 7]: 9%
P53 (%) [4, 7]: 42%

VPTVVSPISMLYIDDMGVPTYKQYEVVVVE (Non-cyclic GFR-binding peptide) [SEQ ID NO: 131]
pRB (%) [3, 7]: 12%
P53 (%) [4, 7]: 36%

VSQAARPVQTRKIDDMGVPTKKATVAAVKSDDMGVPT (also: cyclic peptide) [SEQ ID NO: 38220]
pRB (%) [3, 8]: 9%
P53 (%) [4, 8]: 42%

VSQDLSAISTLYLKIVRKEPLKNYQEMVEE (Non-cyclic GFR-binding peptide) [SEQ ID NO: 58]
pRB (%) [2, 6]: 19%

WWFWGASSAVSQELSAISMLYLGGGLKNYQDMQHN (Non-cyclic GFR-binding peptide) [SEQ ID NO: 171]
pRB [3]: 8
P53 [4]: 47

WWFWGKASSVPTELSPISTLYKDENEKVVLKYHYDMVVEGSGSR (Non-cyclic GFR-binding peptide) [SEQ ID NO: 170]
pRB [3]: 7
P53 [4]: 44
